# Assays:
# mPVR = test: Rescue of mouse CD8+ T-cell proliferation in the presence of recombinant mPVR (IL-2 ELISA readout); assay type: cell-based; conditions: mouse CD8+ T cells, anti-CD3 + mouse PVR, anti-TIGIT antibody = 100%; for Percent rescue of CD8+ T-cell proliferation at 100 nM mPVR based assay: 100 nM compound; for Percent rescue of CD8+ T-cell proliferation mPVR based assay: 1000 nM compound
# Text: 96-well plates, Corning; RPMI, Cat No. R6504, Sigma; Easy Sep magnet, Cat No. 18000, Stem Cell; Easy Sep Mouse CD8 T Cell isolation kit, Cat No. 19853, Stem Cell; Corning® cell strainer, (70 μm) Cat No. 431751, Corning; Purified anti-mouse CD3 Abs, Cat No. 100201, Biolegend; Recombinant mouse PVR, Cat No. 6909-CD-050, R&D Systems; Recombinant mouse anti-TIGIT Ab, Cat No. 142101, Biolegend; FBS, Cat No. SH30070.03, Hyclone; Mouse IL-2 ELISA Kit, R&D System Cat no DY402; Mouse IFN-γ ELISA Kit R&D Systems Cat no. DY485; Sterile PBS; FicollHistopaque, Cat No. 10831-6X100ML, Sigma
# Spleen was collected from C57BL/6 male mice with 6-8 weeks of age. Splenocytes were isolated by slowly crushing the spleen between the sterile glass slides in RPMI+10% FBS and passing it through the 70 μm strainer. Cell suspension was centrifuged at 912×g for 10 minutes at room temperature and discarded the supernatant. Splenocytes were resuspended in RPMI+10% FBS (Complete RPMI). Resuspended splenocytes were overlaid on Ficoll Histopaque-1083 in a 50 ml Tarson tubes. Overlaid cells were centrifuged at 584×g for 30 minutes at room temperature without break. A clear buffy coat was carefully aspirated into sterile PBS. Isolated cells were washed using PBS and resuspended in complete RPMI medium to get a suspension of about 5×10^7 cells/ml. Mouse CD8^+ T cell were isolated by using EasySep Mouse CD8+ T Cell Isolation kit, as per manufacturers instruction.
# 96-well cell culture plate was coated with Purified anti-mouse CD3, 1 μg/mL (50 μL/well) and Recombinant Mouse PVR Fe Chimera, 0.5 μg/mL (50 ul/well) for 4 hours at 37° C. After 4 hours, the coated plate was washed with sterile PBS. Mouse CD8+ T cells isolated from spleen were added at 0.2 million/well ([…]) concentration into a 96-well cell culture plate. Test compound at various concentrations prepared in water or DMSO was added in respective wells (20 μL/well) so as to make the total volume 200 μL/well. The plates were incubated in 37° C. CO2 incubator for 3 days. On the 3rd day, cell supernatant was collected to determine cytokine levels (IL-2 or IFN-7) using ELISA. The extent of CD8+ T cell proliferation in presence or absence of test compound was measured by analysing the amount of IL-2 or IFN-7 in the culture supernatants using mouse IL-2 or IFN-7 ELISA kits as per manufacture instructions. Recombinant mouse anti-TIGIT antibody was used as positive control to determine the increased proliferation of CD8+ T cells.
# Percent CD8+ T cell proliferation was analysed by measuring IL-2 levels using IL-2 ELISA kit and percent rescue of CD8+ T cell by test compound was estimated after deduction of % background proliferation value and normalising to % stimulated CD8+ T cell proliferation by anti-TIGIT antibody (positive control) as 100%.
# PD-L1 = molecular target: T1, PD-L1 (Mus musculus, UniProt Q9EP73); test: Rescue of mouse splenocyte proliferation in the presence of recombinant PD-L1 (CFSE proliferation assay); assay type: cell-based; conditions: 100 nM compound; anti-CD3/CD28 stimulated mouse splenocytes + PD-L1; stimulated splenocytes = 100%; read-out: Percent rescue of splenocyte proliferation at 100 nM PD-L1 based assay
# T1 construct: Fc (Fc chimera); purchased R&D Systems 1019-B7-100
# Protocol: Recombinant mouse PD-L1 (rm-PDL-1, cat no: 1019-B7-100; R&D Systems) were used as the source of PD-L1.
# Mouse splenocytes harvested from 6-8 weeks old C57 BL6 mice; RPMI 1640 (GIBCO, Cat #11875); DMEM with high glucose (GIBCO, Cat #D6429); Fetal Bovine Serum [Hyclone, Cat #SH30071.03]; Penicillin (10000 unit/mL)-Streptomycin (10,000 μg/mL) Liquid (GIBCO, Cat #15140-122); MEM Sodium Pyruvate solution 100 mM (100×), Liquid (GIBCO, Cat #11360); Nonessential amino acid (GIBCO, Cat #11140); L-Glutamine (GIBCO, Cat #25030); Anti-CD3 antibody (eBiosciences—16-0032); Anti-CD28 antibody (eBiosciences—16-0281); ACK lysis buffer (1 mL) (GIBCO, Cat #-A10492); Histopaque (density-1.083 gm/mL) (SIGMA 10831); Trypan blue solution (SIGMA-T8154); 2 mL Norm Ject Luer Lock syringe-(Sigma 2014-12); 40 μm nylon cell strainer (BD FALCON 35230); Hemacytometer (Bright line-SIGMA Z359629); FACS Buffer (PBS/0.1% BSA): Phosphate Buffered Saline (PBS) pH 7.2 (HiMedia TS1006) with 0.1% Bovine Serum Albumin (BSA) (SIGMA A7050) and sodium azide (SIGMA 08591); 5 mM stock solution of CFSE: CFSE stock solution was prepared by diluting lyophilized CFSE with 180 μL of Dimethyl sulfoxide (DMSO C2H6SO, SIGMA-D-5879) and aliquoted in to tubes for further use. Working concentrations were titrated from 10 μM to 1 μM. (eBioscience-650850-85); 0.05% Trypsin and 0.02% EDTA (SIGMA 59417C); 96-well format ELISA plates (Corning CLS3390); BD FACS caliber (E6016); Recombinant mouse B7-H1/PDL1 Fc Chimera, (rm-PD-L1 cat no: 1019-B7-100).
# Splenocytes harvested in a 50 mL falcon tube by mashing mouse spleen in a 40 μm cell strainer were further treated with 1 mL ACK lysis buffer for 5 min at room temperature. After washing with 9 mL of RPMI complete media, cells were re-suspended in 3 mL of 1×PBS in a 15 mL tube. 3 mL of Histopaque was added carefully to the bottom of the tube without disturbing overlaying splenocyte suspension. After centrifuging at 800×g for 20 min at room temperature, the opaque layer of splenocytes was collected carefully without disturbing/mixing the layers. Splenocytes were washed twice with cold 1×PBS followed by total cell counting using Trypan Blue exclusion method and used further for cell based assays.
# Splenocytes were cultured in RPMI complete media (RPMI+10% fetal bovine serum+1 mM sodium pyruvate+10,000 units/mL penicillin and 10,000 μg/mL streptomycin) and maintained in a CO2 incubator with 5% CO2 at 37° C.
# CFSE is a dye that passively diffuses into cells and binds to intracellular proteins. 1×10^6 cells/mL of harvested splenocytes were treated with 5 μM of CFSE in pre-warmed 1×PBS/0.1% BSA solution for 10 min at 37° C. Excess CFSE was quenched using 5 volumes of ice-cold culture media to the cells and incubated on ice for 5 min. CFSE labelled splenocytes were further given three washes with ice cold complete RPMI media. CFSE labelled 1×10^5 splenocytes added to wells containing either MDA-MB231 cells (1×10^5 cells cultured in high glucose DMEM medium) or recombinant human PDL-1 (100 ng/mL) and test compounds. Splenocytes were stimulated with anti-mouse CD3 and anti-mouse CD28 antibody (1 μg/mL each), and the culture was further incubated for 72 h at 37° C. with 5% CO2. Cells were harvested and washed thrice with ice cold FACS buffer and % proliferation was analysed by flow cytometry with 488 nm excitation and 521 nm emission filters.
# Percent splenocyte proliferation was analysed using cell quest FACS program and percent rescue of splenocyte proliferation by compound was estimated after deduction of % background proliferation value and normalising to % stimulated splenocyte proliferation (positive control) as 100%. • Stimulated splenocytes: Splenocytes+anti-CD3/CD28 stimulation • Background proliferation: Splenocytes+anti-CD3/CD28+PD-L1 • Compound proliferation: Splenocytes+anti-CD3/CD28+PD-L1+Compound • Compound effect is examined by adding required conc. of compound to anti-CD3/CD28 stimulated splenocytes in presence of ligand (PDL-1).
# [1] = system: CT26 syngeneic colon adenocarcinoma; test: Efficacy study in the CT-26 syngeneic (Balb/c male) mouse tumor model; assay type: in vivo; conditions: 14 days, CT26 tumor bearing mice
# Protocol: The objective of this study was to evaluate anti-tumor activity of Compound 19 in a CT26 syngeneic colon adenocarcinoma model.
# CT26 cell line was procured from ATCC, maintained and stored at ADTL-Bangalore cell line repository. One vial of CT26 cell line was thawed and revived in T-150 cm^2 flask with RPMI medium supplemented with 10% FBS (Gibco), 10 mM 4-(2-hydroxyethyl)-1-piperazineethanesulfonic acid (HEPES), 1 mM sodium pyruvate, 4.5 g/L Glucose, 1% penicillin streptomycin (Sigma) and 1.5 g/L sodium bicarbonate. The flask with CT26 cells at cell density 0.25 million/ml was incubated at 37±1° C. incubator supplied with 5% carbon dioxide. Cell expansion was carried out in T-150 cm^2 flasks and cell density was maintained between 0.25 […], with cell splitting every alternate day. […] Supernatant was discarded and cell pellets were suspended in media and counted using hemocytometer. […]
# When the mean tumor volumes reached approximately 30±5 mm^3, the animals were randomized based on tumor volumes into five groups (G1 to G5) of ten animals (N=10) each as mentioned below. The treatment was continued for a period of 14 days after which the overall efficacy and tolerability were evaluated based on tumor volume and body weight changes observed during the treatment period. […]
# T1 sequence (Q9EP73 19-238 limits assumed): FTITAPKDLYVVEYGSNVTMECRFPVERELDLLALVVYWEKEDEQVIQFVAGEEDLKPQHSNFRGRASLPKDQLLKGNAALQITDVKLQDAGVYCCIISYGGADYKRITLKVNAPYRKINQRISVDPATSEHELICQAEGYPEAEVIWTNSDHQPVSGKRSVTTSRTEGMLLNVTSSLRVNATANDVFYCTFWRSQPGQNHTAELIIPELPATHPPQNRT
Compound,activation at 0.1 µM (PD-L1),Percent rescue of CD8+ T-cell proliferation at 100 nM mPVR based assay (mPVR),other results
CC(O)[C@H](N)c1noc([C@@H](NC(=O)N[C@@H](Cc2ccccc2)C(=O)O)C(C)O)n1 (stereo partly shown) [Compound 9],–,56.9%,–
"N[C@@H](Cc1ccc(O)cc1)c1noc([C@@H]2CCCN2C(=O)N[C@@H](CC(=O)O)C(=O)O)n1 [Compound 1, ((S)-2-(3-((S)-1-amino-2-(4-hydroxyphenyl)ethyl)-1,2,4-oxadiazol-5-yl)pyrrolidine-1-carbonyl)-L-aspartic acid]",17%,98%,–
CC(O)[C@H](N)c1noc([C@H](Cc2ccc(O)cc2)NC(=O)N2CCC[C@H]2C(=O)O)n1 (stereo partly shown) [Compound 19],99%,72%,"tumor growth inhibition ([1]; 10 mg/kg qd oral): 42%; tumor growth inhibition ([1]; 30 mg/kg qd oral, statistically significant compared to vehicle): 53%"
CC(O)[C@H](N)c1noc([C@@H](N)Cc2ccccc2)n1 (stereo partly shown) [Compound 16],–,–,Percent rescue of CD8+ T-cell proliferation mPVR based assay (mPVR): 72 (@ 1000 nM) %
CC(C)[C@H](N)c1noc([C@@H](NC(=O)N[C@@H](CCC(N)=O)C(=O)O)C(C)O)n1 (stereo partly shown) [Compound 5],27%,–,Percent rescue of CD8+ T-cell proliferation mPVR based assay (mPVR): (17 @ 1000 nM) %
CC(O)[C@H](NC(=O)NCc1nc([C@@H](N)CCC(=O)O)no1)C(=O)O (stereo partly shown) [Compound 8],–,14.6%,–
CC(O)[C@H](NC(=O)NCc1nc([C@@H](N)CC(=O)O)no1)C(=O)O (stereo partly shown) [Compound 2],84%,14%,–

# The next lines start with results.
activation at 0.1 µM (PD-L1),Compound,Percent rescue of CD8+ T-cell proliferation at 100 nM mPVR based assay (mPVR),other results
35%,CC(O)[C@H](N)c1noc([C@H](Cc2ccccc2)NC(=O)N2CCC[C@H]2C(=O)O)n1 (stereo partly shown) [Compound 20],–,–
11%,CC(O)[C@H](NC(=O)N[C@@H](Cc1ccc(O)cc1)C(=O)O)c1nc([C@@H](N)Cc2c[nH]cn2)no1 (stereo partly shown) [Compound 3],59%,–
39%,CC(O)[C@H](NC(=O)N[C@@H](Cc1cnc[nH]1)c1nc([C@@H](N)Cc2ccc(O)cc2)no1)C(=O)O (stereo partly shown) [Compound 7],–,–
15%,CCC(C)[C@H](NC(=O)N[C@@H](CS)c1nc([C@@H](N)Cc2ccccc2)no1)C(=O)O (stereo partly shown) [Compound 6],–,–
22%,N[C@@H](CCC(=O)O)c1noc([C@H](Cc2ccc(O)cc2)NC(=O)N[C@@H](Cc2ccccc2)C(=O)O)n1 [Compound 4],–,–

# — patent US12005045B2, “Method of modulating TIGIT and PD-1 signalling pathways using 1,2,4-oxadiazole compounds” (AURIGENE ONCOLOGY LIMITED, priority 2018, dated 2024)
